Our source for the Ki, efficacy versus placebo and melting point values is PMC9032385, “A2A Adenosine Receptor Antagonists: Are Triazolotriazine and Purine Scaffolds Interchangeable?” (Molecules, 2022).

Some results are limits rather than exact numbers.

In data set [1] the target is T1, human recombinant A2AAR (Homo sapiens, UniProt P29274).
T1 construct: expressed in transfected cells; membrane preparation
Briefly: Radioligand binding at human A2AAR ([3H]NECA displacement, CHO cell membranes). Particulars: displacement of [3H]NECA, CHO membranes, n = 3–5, means ± standard errors. The protocol:
Most of the compounds were also evaluated at A2BARs in a functional study using the GloSensor cAMP assay. […] In the case of A2BARs, Ki-values were calculated from IC50-values determined by the inhibition of NECA-stimulated adenylyl cyclase activity.
Preparation of membranes: Cell membranes for binding assays were prepared mechanically detaching the cells from the petri and suspending them in a cold hypotonic buffer (5 mM Tris/HCl, 2 mM EDTA, pH 7.4). The cell suspension was homogenized (Ultra-Turrax, 2 × 15 s at maximum speed) and the homogenate centrifuged for 10 min (4 °C) to 1000× g. […] The amount of the protein suspension was determined according to the […] using the BCA Protein Assay Kit (Pierce), frozen in liquid nitrogen, and stored at −80 °C.
(§1) Binding assays: The dissociation constants of the radioligand (KD) were calculated through saturation assays, while the dissociation constants of the compounds under study (Ki) were determined by competition experiments. All binding data were calculated by nonlinear regression curves using the software GraphPad Prism 5 (GraphPad Software, San Diego, CA, USA). The increasing concentrations of the radioligand saturation binding ([^3H]-CCPA for the A1 receptor subtype, [^3H]-NECA for the A2A receptor subtype, and [^3H]-HEMADO for the A3 receptor) subtype were incubated in a total volume of 250 μL containing 0.2 U/mL of Ado deaminase (ADA) and 12 micrograms of membrane proteins in the specific buffer. In competition experiments for the A1 receptor subtype, each compound was added at increasing concentrations, to the well containing 1 nM of [^3H]-CCPA, to a final volume of 200 μL. The samples were left to incubate for 3 h at room temperature, filtered in a filter 96-well plate (UniFilter GF/C, Perkin-Elmer Life and Analytical Science, Boston, MA) using the FilterMate Cell Harvester (Perkin-Elmer), and washed 3 times with cold distilled water. After drying the filter plate at 40 °C for 30′, they 20 μL of scintillating liquid (Microscint-20, Perkin-Elmer) was added to each well, and then the radioactivity was quantized with the MicroBeta2 Plate Counter (Perkin-Elmer). The conditions for binding experiments at A2A and A3 receptor subtypes were essentially the same as for the A1AR using [^3H]-NECA (N-ethylcarboxyamideAdo) at a concentration of 10 nM and [^3H]-HEMADO (2-(1-hexyne)-N^6-methylAdo) at a concentration of 1 nM as radioligands, respectively. The samples were incubated with 12 micrograms of protein for 3 h at room temperature and filtered as described above.
(§2) The non-specific binding was determined in the presence of 1 mM theophylline for the A1AR, or 100 µM R-PIA (N^6-(1-methyl-2-phenylethyl)Ado) for the A2A and A3 receptors.
Background: Displacement assays read how much labelled ligand stays bound in the presence of the test substance.

The target in data set [2] is T2, A2BAR (Homo sapiens, UniProt P29275).
T2 construct: expressed in transfected cells
T2 sequence (P29275 1-332): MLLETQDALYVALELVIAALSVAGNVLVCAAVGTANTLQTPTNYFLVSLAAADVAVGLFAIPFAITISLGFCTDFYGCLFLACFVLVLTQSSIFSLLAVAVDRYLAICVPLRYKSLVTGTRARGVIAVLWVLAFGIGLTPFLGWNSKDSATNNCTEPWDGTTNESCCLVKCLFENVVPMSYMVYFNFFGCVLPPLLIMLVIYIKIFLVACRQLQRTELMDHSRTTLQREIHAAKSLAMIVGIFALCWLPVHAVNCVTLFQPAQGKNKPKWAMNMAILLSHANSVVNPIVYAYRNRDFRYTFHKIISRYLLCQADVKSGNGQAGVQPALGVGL
Kind of data set: Functional study at A2BAR (GloSensor cAMP assay; inhibition of NECA-stimulated adenylyl cyclase activity). In kind it is cell-based. Particulars: Ki calculated from IC50 of inhibition of NECA-stimulated adenylyl cyclase activity, CHO cells. The protocol:
(§3) The affinities of the newly synthesized compounds 7–13 and 17–21 were determined in binding studies at human recombinant A1, A2A, and A3 ARs, stably transfected in Chinese hamster ovary (CHO) cells, using [^3H]CCPA (2-chloro-N^6-cyclopentylAdo), [^3H]NECA (5′-N-ethylcarboxamidoAdo), and [^3H]HEMADO (2-hexynyl-N^6-methylAdo) as respective radioligands. Most of the compounds were also evaluated at A2BARs in a functional study using the GloSensor cAMP assay. The results are reported in Table 1 as Ki values in nM (± standard errors). In the case of A2BARs, Ki-values were calculated from IC50-values determined by the inhibition of NECA-stimulated adenylyl cyclase activity.

In data set [3] the target is T3, human recombinant A1AR (Homo sapiens, UniProt P30542).
T3 construct: expressed in transfected cells; membrane preparation
T3 sequence (P30542 1-326): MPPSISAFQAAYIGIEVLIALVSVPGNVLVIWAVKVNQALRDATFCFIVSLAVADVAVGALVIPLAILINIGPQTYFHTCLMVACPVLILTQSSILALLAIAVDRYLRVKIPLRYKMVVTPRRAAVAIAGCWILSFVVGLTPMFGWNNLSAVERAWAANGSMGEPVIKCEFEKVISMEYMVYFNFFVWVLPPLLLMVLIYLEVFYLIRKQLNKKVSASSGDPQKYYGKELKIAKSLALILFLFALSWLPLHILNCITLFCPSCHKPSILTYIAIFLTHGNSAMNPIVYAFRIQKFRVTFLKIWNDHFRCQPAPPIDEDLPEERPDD
Briefly: Radioligand binding at human A1AR ([3H]CCPA displacement, CHO cell membranes). Particulars: displacement of [3H]CCPA, n = 3–5, means ± standard errors. The protocol: as §3
(§4) Cell culture: The Chinese hamster ovary cells (CHO) stably transfected with the desired ARs were grown in DMEM/F12 medium containing 10% FBS (fetal bovine serum), 100 U/mL penicillin, 100 µg/mL streptomycin, 2.5 μg/mL amphotericin B, 1 mM sodium pyruvate, 0.1 mg/mL genetecina (G418), and incubated at 37 °C in a gaseous mixture of 5% CO2: […].
(§5) Preparation of membranes: Cell membranes for binding assays were prepared mechanically detaching the cells from the petri and suspending them in a cold hypotonic buffer (5 mM Tris/HCl, 2 mM EDTA, pH 7.4). The cell suspension was homogenized (Ultra-Turrax, 2 × 15 s at maximum speed) and the homogenate centrifuged for 10 min (4 °C) to 1000× g. The supernatant was subsequently centrifuged for 30 min (4 °C) at 100,000× g and the pellet containing the membrane proteins was re-suspended in a specific buffer for each receptor subtype (A1: 50 mM Tris/HCl, pH 7.4; A2A: 50 mM Tris/HCl, 10 mM MgCl2, pH 7.4; A3: 50 mM Tris/HCl, 10 mM MgCl2, 1 mM EDTA, pH 8.25). The amount of the protein suspension was determined according to the […] using the BCA Protein Assay Kit (Pierce), frozen in liquid nitrogen, and stored at −80 °C.
as §1, §2

The target in data set [4] is T4, human recombinant A3AR (Homo sapiens, UniProt P0DMS8).
T4 construct: expressed in transfected cells; membrane preparation
T4 sequence (P0DMS8 1-318): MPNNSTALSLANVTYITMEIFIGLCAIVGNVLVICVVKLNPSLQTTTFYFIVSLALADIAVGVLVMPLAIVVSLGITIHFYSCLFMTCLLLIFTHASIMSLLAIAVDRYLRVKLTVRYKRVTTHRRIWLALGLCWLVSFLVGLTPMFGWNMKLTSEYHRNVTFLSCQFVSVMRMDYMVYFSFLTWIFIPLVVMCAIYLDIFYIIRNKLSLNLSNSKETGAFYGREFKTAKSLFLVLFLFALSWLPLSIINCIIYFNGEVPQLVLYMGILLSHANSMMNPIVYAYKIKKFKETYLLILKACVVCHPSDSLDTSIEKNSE
Briefly: Radioligand binding at human A3AR ([3H]HEMADO displacement, CHO cell membranes). The settings on record: displacement of [3H]HEMADO, n = 3–5, means ± standard errors. The protocol: as §3, §4, §5, §1, §2

In data set [5] the test system is PD patients. Details: method as in PMID 26523919. Particulars: two phase III trials, adjunct to levodopa in PD patients; cited from earlier work.

T1 sequence (P29274 whole entry): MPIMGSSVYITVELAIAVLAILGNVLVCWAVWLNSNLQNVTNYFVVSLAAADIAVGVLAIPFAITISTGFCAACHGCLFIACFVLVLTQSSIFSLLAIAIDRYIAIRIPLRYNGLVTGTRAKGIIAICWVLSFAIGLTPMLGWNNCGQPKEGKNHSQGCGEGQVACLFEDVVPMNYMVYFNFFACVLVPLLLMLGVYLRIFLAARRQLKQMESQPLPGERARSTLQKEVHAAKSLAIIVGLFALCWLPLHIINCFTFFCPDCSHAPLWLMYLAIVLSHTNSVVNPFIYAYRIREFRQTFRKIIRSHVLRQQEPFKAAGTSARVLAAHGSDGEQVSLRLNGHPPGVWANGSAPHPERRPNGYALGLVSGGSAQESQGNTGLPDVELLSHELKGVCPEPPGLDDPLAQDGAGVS

Consider `CCn1c(O)nc2c(N)nc(NCCc3ccc(O)cc3)nc21` [compound 11], for which the Ki (in general, a dissociation constant, usually derived from enzyme kinetics or from competition with a known ligand) in data set [1] is above 30 µM; in data set [2], above 30 µM; in data set [3] it was 7.05 µM; in data set [4] it was above 30 µM.

For `CCn1cnc2c(N)nc(NCCc3ccc(OC)cc3)nc21` [compound 7, 9-Ethyl-N^2-(4-methoxyphenethyl)-9H-purine-2,6-diamine], the Ki is 1.46 µM in data set [1], above 30 µM in data set [2], 5.84 µM in data set [3] and 23.6 µM in data set [4].

As for `CCn1c(O)nc2c(N)nc(NCCc3ccc(OC)cc3)nc21` [compound 10], the Ki in data set [1] is above 30 µM; in data set [2], above 30 µM; in data set [3] it was 1.39 µM; in data set [4], 0.777 µM.

As for `CCn1c(Br)nc2c(N)nc(NCCc3ccc(O)cc3)nc21` [compound 9, 4-(2-((6-Amino-9-ethyl-8-bromo-9H-purin-2-yl)amino)ethyl)phenol], the Ki in data set [1] is 0.044 µM; in data set [2], 0.393 µM; in data set [3], 0.411 µM; in data set [4], 3.81 µM.

`COCCOc1ccc(N2CCN(CCn3ncc4c3nc(N)n3nc(-c5ccco5)nc43)CC2)cc1` [Preladenant]: the efficacy versus placebo result in data set [5] was “efficacy was not significantly higher than the placebo”.

With `CCn1c(-c2ccco2)nc2c(N)nc(NCCc3ccc(OC)cc3)nc21` [compound 12, 9-ethyl-8-(furan-2-yl)-N^2-(4-methoxyphenethyl)-9H-purine-2,6-diamine], the Ki in data set [1] is 0.001 µM; in data set [2] it was above 30 µM; in data set [3], 0.0026 µM; in data set [4] it was 0.016 µM.

Consider `CCOc1nc2nc(SC)nc(N)n2n1` [compound 18, 2-Ethoxy-5-(methylthio)-[1,2,4]triazolo[1,5-a][1,3,5]triazin-7-amine], for which the melting point (usually the temperature, or range, at which the solid turns liquid) is 220 °C (dec.). For the same molecule, the Ki in data set [1] was determined as 0.583 µM. Also, in data set [3], the Ki came to 4.57 µM. Also, the Ki in data set [4] stood at 9.72 µM.

Consider `CCOc1nc(N)n2nc(OCC)nc2n1` [compound 19, 2,5-diethoxy-[1,2,4]triazolo[1,5-a][1,3,5]triazin-7-amine], for which the Ki in data set [1] came out at 1.06 µM; in data set [3], 6.36 µM; in data set [4], 4.79 µM.

As for `CCn1c(Br)nc2c(N)nc(NCCc3ccc(OC)cc3)nc21` [compound 8, 8-Bromo-9-ethyl-N^2-(4-methoxyphenethyl)-9H-purine-2,6-diamine], the Ki was 0.034 µM in data set [1], 4.26 µM in data set [2], 0.545 µM in data set [3] and 4.03 µM in data set [4].

On to `CSc1nc(N)n2nc(S(C)(=O)=O)nc2n1` [compound 17, 2-(Methylsulfonyl)-5-(methylthio)-[1,2,4]triazolo [1,5-a][1,3,5]triazin-7-amine], for which the Ki in data set [1] is 3.24 µM; in data set [3], 5.72 µM; in data set [4], 14.7 µM.
